{"source": "patent US8574645B2", "about": "“Antimicrobial composition” (DSM IP Assets B.V., priority 2004, dated 2013)", "key": {"Listeria innocua LM35": {"test_system": "Listeria innocua LM35", "assay": "Antibacterial activity in inoculated cottage cheese, viable cell enumeration", "type": "cell-based", "conditions": "for Log CFU/g of L. innocua: nisin 0.00 ppm, cottage cheese, 4-7° C.", "protocol": "This example describes the antibacterial activity of nisin (1.25 and 2.5 ppm) in cottage cheese, in presence of low natamycin concentration. Cottage cheese was prepared as described above. After adding the dressing to the dry curd, the cottage cheese was inoculated with yeasts, fungal cells and cells of Listeria innocua LM35. Following the artificial contamination, the cottage cheese was added with two nisin concentrations 1.25 and 2.5 ppm and/or in combination with natamycin at the concentration 2.5 or 5 ppm. The antibacterial activity of nisin against L. innocua was evaluated after 3 and 6 weeks of incubation at 4° C. through the enumeration of the viable cells in the inoculated samples, in presence or not of preservatives. The number of viable bacterial cells was also determined in a negative sample, non inoculated cottage cheese without preservatives and in a positive control, sample artificially contaminated with bacteria."}, "Gram positive bacteria": {"test_system": "Gram positive bacteria", "assay": "Outgrowth of Gram positive bacteria at the surface of food products", "type": "cell-based", "conditions": "applied at the surface of product, 0.0001 and 1 ppm nisin"}, "[1]": {"type": "physicochemical", "protocol": "Cottage cheese was prepared following the standard procedure for cottage cheese making. The dry curd was obtained by addition of a starter culture to pasteurized skim milk. After acidification till pH 4.4 the curd was pasteurized and rinsed with water. The dry curd was mixed with the dressing at the ratio 66% curd and […]. Before mixing the curd and the dressing, the preservatives Delvocid® and Delvoplus® were added to the dressing. The preservative concentrations in the end products were 2.5 and 5 ppm of natamycin (5 and 10 ppm of Delvocid®) and 1.25 and 2.5 ppm of nisin (50 and 100 ppm of Delvoplus®). The moisture content of cottage cheese (dry curd mixed with the dressing) was 82%.\nThe procedure described in the International IDF (International Dairy Federation) Standard 140A:1992 for cheese was used to determine the concentration of natamycin in the cottage cheese samples. In total 12 different samples were analysed in triplicate. The remaining percentage of natamycin was calculated using the average of the triplicate. […] After 6 weeks of storage at refrigerated temperature, the average stability of natamycin in cottage cheese was of 92%."}, "[2]": {"test_system": "Kluyveromyces marxianus CBS 1557", "assay": "Antifungal activity in inoculated cottage cheese, viable cell enumeration", "type": "cell-based", "conditions": "for Log CFU/g of K. marxianus: nisin 0.00 ppm, cottage cheese, 4-7° C.", "protocol": "(§1) This example describes the antifungal activity of low natamycin concentration (2.5 and 5 ppm) in cottage cheese, in presence of nisin. Cottage cheese was prepared as described above. After adding the dressing to the dry curd, the cottage cheese was inoculated with yeasts and fungal cells, Kluyveromyces marxianus CBS 1557 and Penicillium roqueforti CBS 304.97, respectively. Following the artificial contamination, natamycin and/or nisin was added to the cottage cheese at two different concentrations, 2.5 and 5 ppm for natamycin and 1.25 and 2.50 ppm for nisin. The antifungal activity of natamycin against the yeast and the mould cells was evaluated after 3 and 6 weeks of incubation at 4° C. through the enumeration of the viable cells in the inoculated samples, in presence or not of preservatives. The number of viable yeast of fungal cells was also determined in a negative sample, non inoculated cottage cheese without preservatives and in a positive control, sample artificially contaminated with yeast and fungal cells without preservative."}, "[3]": {"test_system": "Penicillium roqueforti CBS 304.97", "assay": "Antifungal activity in inoculated cottage cheese, viable cell enumeration", "type": "cell-based", "conditions": "for Log spores/g of P. roqueforti: nisin 0.00 ppm, cottage cheese, 4-7° C.", "protocol": "as §1"}, "yeast and mould": {"test_system": "yeast and mould", "assay": "Outgrowth of yeast and mould in or on food products", "type": "cell-based"}, "most food born fungi": {"test_system": "most food born fungi", "conditions": "cited from earlier work"}, "[4]": {"conditions": "natamycin at 2.5 or 5 ppm in cottage cheese, up to 6 weeks"}}, "note": "Like-named read-outs stand apart in the source and are kept apart here.", "data": [{"compound": "nisin", "values": [{"measurement": "Inhibition of growth of L. innocua", "setting": "Listeria innocua LM35; nisin 1.25 and 2.5 ppm in cottage cheese, in presence or not of natamycin", "value": "inhibited the growth"}, {"measurement": "Effectiveness against Gram positive bacteria", "setting": "Gram positive bacteria", "value": "extremely effective"}]}, {"compound": "C[C@@H]1C/C=C/C=C/C=C/C=C/[C@H](O[C@@H]2O[C@H](C)[C@@H](O)[C@H](N)[C@@H]2O)C[C@@H]2O[C@](O)(C[C@@H](O)C[C@H]3O[C@@H]3/C=C/C(=O)O1)C[C@H](O)[C@H]2C(=O)O", "note": "[natamycin]", "values": [{"measurement": "Stability of dissolved natamycin in water-containing product", "setting": "[1]", "value": "stable"}, {"measurement": "Stability of natamycin in cottage cheese", "setting": "[1]", "value": "stable"}, {"measurement": "Remaining percentage of natamycin", "setting": "[1]; 0 h", "value": 100, "unit": "%"}, {"measurement": "Remaining percentage of natamycin, Average", "setting": "[1]; 0 h", "value": 100, "unit": "%"}, {"measurement": "Remaining percentage of natamycin, Average", "setting": "[1]; 504 h", "value": 98, "unit": "%"}, {"measurement": "Remaining percentage of natamycin, Average", "setting": "[1]; 1008 h", "value": 92, "unit": "%"}, {"measurement": "Log CFU/g of K. marxianus", "setting": "[2]; natamycin 2.50 ppm, 0 week", "value": 1.70, "unit": "Log CFU/g"}, {"measurement": "Log CFU/g of K. marxianus", "setting": "[2]; natamycin 2.50 ppm, 3 weeks", "value": 1.70, "unit": "Log CFU/g"}, {"measurement": "Log CFU/g of K. marxianus", "setting": "[2]; natamycin 2.50 ppm, 6 weeks", "value": "<1.00", "unit": "Log CFU/g"}, {"measurement": "Log CFU/g of K. marxianus", "setting": "[2]; natamycin 5.00 ppm, 0 week", "value": 1.30, "unit": "Log CFU/g"}, {"measurement": "Log CFU/g of K. marxianus", "setting": "[2]; natamycin 5.00 ppm, 3 weeks", "value": "<1.00", "unit": "Log CFU/g"}, {"measurement": "Log CFU/g of K. marxianus", "setting": "[2]; natamycin 5.00 ppm, 6 weeks", "value": "<1.00", "unit": "Log CFU/g"}, {"measurement": "Prevention of growth of K. marxianus", "setting": "[2]; [4]", "value": "effective in preventing the growth"}, {"measurement": "Log spores/g of P. roqueforti", "setting": "[3]; natamycin 2.50 ppm, 0 week", "value": 1.70, "unit": "Log spores/g"}, {"measurement": "Log spores/g of P. roqueforti", "setting": "[3]; natamycin 2.50 ppm, 3 weeks", "value": 1.70, "unit": "Log spores/g"}, {"measurement": "Log spores/g of P. roqueforti", "setting": "[3]; natamycin 2.50 ppm, 6 weeks", "value": "<1.00", "unit": "Log spores/g"}, {"measurement": "Log spores/g of P. roqueforti", "setting": "[3]; natamycin 5.00 ppm, 0 week", "value": 1.60, "unit": "Log spores/g"}, {"measurement": "Log spores/g of P. roqueforti", "setting": "[3]; natamycin 5.00 ppm, 3 weeks", "value": "<1.00", "unit": "Log spores/g"}, {"measurement": "Log spores/g of P. roqueforti", "setting": "[3]; natamycin 5.00 ppm, 6 weeks", "value": "<1.00", "unit": "Log spores/g"}, {"measurement": "Prevention of growth of P. roqueforti", "setting": "[3]; [4]", "value": "effective in preventing the growth"}, {"measurement": "Log CFU/g of L. innocua", "setting": "Listeria innocua LM35; natamycin 2.50 ppm, 0 week", "value": 1.90, "unit": "Log CFU/g"}, {"measurement": "Log CFU/g of L. innocua", "setting": "Listeria innocua LM35; natamycin 2.50 ppm, 3 weeks", "value": 2.50, "unit": "Log CFU/g"}, {"measurement": "Log CFU/g of L. innocua", "setting": "Listeria innocua LM35; natamycin 2.50 ppm, 6 weeks", "value": 4.50, "unit": "Log CFU/g"}, {"measurement": "Log CFU/g of L. innocua", "setting": "Listeria innocua LM35; natamycin 5.00 ppm, 0 week", "value": 1.90, "unit": "Log CFU/g"}, {"measurement": "Log CFU/g of L. innocua", "setting": "Listeria innocua LM35; natamycin 5.00 ppm, 3 weeks", "value": 1.90, "unit": "Log CFU/g"}, {"measurement": "Log CFU/g of L. innocua", "setting": "Listeria innocua LM35; natamycin 5.00 ppm, 6 weeks", "value": 4.70, "unit": "Log CFU/g"}, {"measurement": "Effectiveness against yeast and mould", "setting": "yeast and mould; applied at the surface of product, 0.01 to 10 ppm natamycin", "value": "extremely effective"}, {"measurement": "Effectiveness against yeast and mould", "setting": "yeast and mould; introduced into foodstuffs at concentrations whereby almost no crystal or solid form is present, ranging from 120 ppm based on water content", "value": "extremely effective"}, {"measurement": "MIC (Minimal Inhibition Concentration)", "setting": "most food born fungi", "value": "less than 10 ppm"}]}]}
